Drawing on PubChem BioAssay AID1033 (Sanford-Burnham Center for Chemical Genomics, 2008), this text covers Kd for 96 molecules.

Activity calls are given as the source filed them. How the calls were made is not given here.

By Kd is commonly meant the concentration at which binding is half-saturated.

Chaperone protein DnaK (Escherichia coli (strain K12)), sequence (P0A6Y8 whole entry, looked up, the tested form may be a part): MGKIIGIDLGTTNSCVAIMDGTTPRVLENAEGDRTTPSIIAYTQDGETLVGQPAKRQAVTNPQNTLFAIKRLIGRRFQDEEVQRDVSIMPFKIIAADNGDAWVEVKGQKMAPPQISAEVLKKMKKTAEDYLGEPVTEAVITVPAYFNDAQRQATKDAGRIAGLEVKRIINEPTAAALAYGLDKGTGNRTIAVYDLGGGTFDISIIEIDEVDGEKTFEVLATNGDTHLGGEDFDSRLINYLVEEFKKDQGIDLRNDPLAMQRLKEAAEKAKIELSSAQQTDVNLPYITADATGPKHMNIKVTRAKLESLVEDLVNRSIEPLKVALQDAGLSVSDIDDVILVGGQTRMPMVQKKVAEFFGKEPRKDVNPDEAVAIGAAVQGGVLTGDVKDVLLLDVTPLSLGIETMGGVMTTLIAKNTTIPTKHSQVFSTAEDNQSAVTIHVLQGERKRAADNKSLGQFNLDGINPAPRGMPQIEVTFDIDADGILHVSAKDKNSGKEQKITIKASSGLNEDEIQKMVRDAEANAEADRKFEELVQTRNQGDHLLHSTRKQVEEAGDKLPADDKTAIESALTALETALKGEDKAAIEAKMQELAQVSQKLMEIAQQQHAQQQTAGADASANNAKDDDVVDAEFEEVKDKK

This test addresses Chaperone protein DnaK (Escherichia coli (strain K12)) (UniProt P0A6Y8). In words: binders of DnaK substrate-binding domain, biophysical, NMR, chaperone (AID 1033). Conditions: Purified DnaK SBD, NMR ligand binding.
As for `CC(=O)O[C@H]1CC[C@@]2(C)C(=CC(=O)C3C4CCC(C(C)CCCC(C)C)[C@@]4(C)CCC32)C1` (stereo partly specified), the Kd is > 4 mM (inactive).

In the case of `CC(=O)OC1CCC23CC1(C)CCC2C(C)(C)CC3OC(C)=O` (stereo unspecified), the Kd was > 4 mM (inactive). The same measure for `CS(=O)(=O)NN=C1CCCCC1`: > 4 mM (inactive).

Turning to `COc1ccc(NS(=O)(=O)c2ccc(N)cc2)nn1`, the Kd is > 4 mM (inactive). Under `Nc1nnc(Cc2ccc(Cl)cc2)s1` stands > 4 mM (inactive). Consider `CCn1c(-c2c[nH]c3ccccc23)n[nH]c1=S`, for which the Kd is > 4 mM (inactive). The same measure for `C[C@]12CC(=O)C3C(CC[C@@H]4C[C@H](O)CC[C@]34C)C1CC[C@]2(O)C(=O)CO` (stereo partly specified): > 4 mM (inactive); for `Cc1nc(NCc2ccco2)nc2c1C(=O)CC(C)C2` (stereo unspecified): > 4 mM (inactive).

Regarding `O=C(NCc1cccc(Cl)c1)c1cnccn1`, the Kd was > 4 mM (inactive). Under `Cc1cccc(NC(=O)Nc2cc(C)on2)c1` stands > 4 mM (inactive); under `Cc1cc(OC(=O)c2c(C)cc(O)cc2O)cc(O)c1C(=O)O`, > 4 mM (inactive); under `NCc1csc(-c2cccs2)n1`, > 4 mM (inactive). Under `Nc1c(F)c(F)nc(F)c1F` stands > 4 mM (inactive).

Regarding `Cc1n[nH]c(=S)n1-c1ccc(C(=O)O)cc1`, the Kd was > 4 mM (inactive). Under `COC(=O)[C@@H]1OC(=O)[C@H]2O[C@@]23[C@@]1(C)CCC1[C@@]2(C)CCC(=O)C(C)(C)C2C[C@@H](OC(C)=O)[C@]13C` (stereo partly specified) stands > 4 mM (inactive); under `O=C(O)CSCC(=O)Nc1cccc(O)c1`, > 4 mM (inactive). Under `S=c1nc(C2CC2)[nH]c2ccccc12` stands > 4 mM (inactive); under `O=C(O)Cn1cnc2ccccc2c1=O`, > 4 mM (inactive); under `COc1ccc([C@@H]2CC(=O)c3c(O)cc(O)cc3O2)cc1O`, > 4 mM (inactive). With `O=C1NC(=O)C(Cc2ccccc2)C(=O)N1`, the Kd was > 4 mM (inactive). Under `NC1=NC(=O)/C(=C/c2ccc(O)c(Cl)c2)S1` stands > 4 mM (inactive); under `C=C[C@H]1CN2CC[C@H]1C[C@H]2[C@H](O)c1ccnc2ccccc12`, > 4 mM (inactive); under `CC(=O)Nc1cccc(-c2n[nH]c(=S)n2C)c1`, > 4 mM (inactive).

For `CN1C(=O)c2ccc(N=C3NC(=O)CS3)cc2C1=O`, the Kd was > 4 mM (inactive). The same measure for `O=C(CSc1ccc(Cl)cc1)N1CCOCC1`: > 4 mM (inactive); for `COc1cccc(-c2csc(NC(C)=O)n2)c1`: > 4 mM (inactive); for `O=C(c1ccccc1)N1CCN(c2ccccc2F)CC1`: > 4 mM (inactive).

On to `CCC(=O)OC1[C@@H]2CC3=C4CC(=O)O[C@@H](c5ccoc5)[C@]4(C)CCC3C(C)(C2=O)[C@@H](CC(=O)OC)C1(C)C` (stereo partly specified), for which the Kd was > 4 mM (inactive).

For the molecule `Cn1nccc1N`, the Kd was > 4 mM (inactive). Regarding `CCN1CCC(NC2CCCCNC2=O)CC1` (stereo unspecified), the Kd was > 4 mM (inactive). As for `OCc1cc(F)cc2c1OCOC2`, the Kd was > 4 mM (inactive). The same measure for `COc1ccc(C2(C)NC(=O)NC2=O)cc1` (stereo unspecified): > 4 mM (inactive); for `OCc1ccc(-c2ccccn2)s1`: > 4 mM (inactive); for `Clc1ccc(SCCn2cncn2)cc1`: > 4 mM (inactive). As to `COc1cc(C(C)=O)ccc1OC(=O)N1CCOCC1`, the Kd was > 4 mM (inactive). Under `C[C@@H]1O[C@@H](O[C@H]2[C@@H](Oc3cc(O)c4c(c3)O[C@H](c3ccc(O)cc3)CC4=O)O[C@H](CO)[C@@H](O)[C@@H]2O)[C@H](O)[C@H](O)[C@H]1O` stands > 4 mM (inactive); under `CC1=NN2C(=N)/C(=C\c3cccs3)C(=O)N=C2S1`, > 4 mM (inactive); under `O=C(CSc1ncccn1)NCc1ccco1`, > 4 mM (inactive). The same measure for `CC(=O)Nc1ccc(NC(=O)C2CC2)cc1`: > 4 mM (inactive); for `CN(c1ccc(C(=O)N2CCCCC2)cc1)S(C)(=O)=O`: > 4 mM (inactive). With `Cc1ccc(/C=N/NC(N)=O)o1`, the Kd was > 4 mM (inactive).

As to `CCOC(=O)C1CCC(=O)c2cccn21` (stereo unspecified), the Kd was > 4 mM (inactive). `Cn1c(NCC(=O)O)nc2c1c(=O)[nH]c(=O)n2C`: the Kd was > 4 mM (inactive). Consider `Cn1c(=O)c2[nH]cnc2n(-c2ccccc2)c1=O`, for which the Kd was > 4 mM (inactive). The same measure for `N/N=C1\CCCc2c1no[n+]2[O-]`: > 4 mM (inactive); for `O=C(c1ncc[nH]1)c1ccccc1C(=O)N1CCOCC1`: > 4 mM (inactive); for `CC(=O)Oc1ccc(N2C(=O)C3C4C=CC(O4)C3C2=O)cc1` (stereo unspecified): > 4 mM (inactive). In the case of `O=C(O)c1cc2ccccc2o1`, the Kd was > 4 mM (inactive). The same measure for `COC(=O)[C@]1(C)CCC[C@]2(C)c3ccc(C(C)C)cc3C(=O)CC12` (stereo partly specified): > 4 mM (inactive); for `COC(=O)Nc1nc2c(C)cccc2s1`: > 4 mM (inactive); for `Nc1cc(=O)[nH]c(SCC(=O)NCc2ccccc2)n1`: > 4 mM (inactive). `Cn1cccc1C(=O)NS(=O)(=O)c1ccccc1Cl`: the Kd was > 4 mM (inactive). Under `CC(=O)OC[C@H]1O[C@@H](Oc2cc(OC(C)=O)c3c(=O)cc(-c4ccc(OC(C)=O)cc4)oc3c2)[C@H](OC(C)=O)[C@@H](OC(C)=O)[C@@H]1OC(C)=O` stands > 4 mM (inactive).

In the case of `CC1(C)N=C2C(=[N+]1[O-])CCC/C2=N\O`, the Kd was > 4 mM (inactive). As to `NCc1cccc(-n2cccc2)c1`, the Kd was > 4 mM (inactive). On to `O=C(c1cccs1)N1CCCc2ccccc21`, for which the Kd is > 4 mM (inactive).

Consider `Cc1cc(C(=O)N2CCN(c3ccccn3)CC2)c(C)o1`, for which the Kd was > 4 mM (inactive). Under `O=C1CC(NCc2ccco2)C(=O)NN1` (stereo unspecified) stands > 4 mM (inactive); under `c1ccc2[nH]c(CCn3cncn3)nc2c1`, > 4 mM (inactive); under `Cc1nc(-c2cnccn2)sc1C(=O)O`, > 4 mM (inactive).

For the molecule `O=C(CSc1ncn[nH]1)c1ccccc1`, the Kd was > 4 mM (inactive). `O=C1NC(=S)NC(=O)C1=Cc1ccccc1O`: the Kd is > 4 mM (inactive). The same measure for `C[C@H]1O[C@@H](O[C@H]2[C@@H](O)C[C@H](O[C@H]3[C@@H](O)C[C@H](O[C@H]4CC[C@]5(C)C6CC[C@]7(C)[C@@H](C8=CC(=O)OC8)CC[C@]7(O)C6CC[C@@H]5C4)O[C@@H]3C)O[C@@H]2C)C[C@H](O)[C@@H]1O` (stereo partly specified): > 4 mM (inactive); for `C[C@@H]1C(=O)OC2[C@H](O)C34[C@@H]5OC(=O)[C@@]3(O[C@@H]3OC(=O)[C@H](O)[C@@]34[C@H](C(C)(C)C)[C@H]5O)[C@]21O` (stereo partly specified): > 4 mM (inactive).

For `O=C1Nc2ccc(S(=O)(=O)NCCO)c3cccc1c23`, the Kd was > 4 mM (inactive). The same measure for `CC1O[C@@H](Oc2c(-c3ccc(O)c(O)c3)oc3cc(O)cc(O)c3c2=O)[C@H](O)[C@H](O)[C@H]1O` (stereo partly specified): > 4 mM (inactive).

Consider `COC(=O)c1cc2ccccc2cn1`, for which the Kd is > 4 mM (inactive).

On to `COc1c(C)c2c(c(O)c1C/C=C(\C)CCC(=O)O)C(=O)OC2`, for which the Kd was > 4 mM (inactive).

On to `O=C(Nc1ccccc1F)c1ccncc1`, for which the Kd is > 4 mM (inactive). Take `CC(=O)Nc1ccc2c(c1)C(=O)N(C1CCCCC1)C2=O`: the Kd was > 4 mM (inactive). Under `O=C1C=CC(=O)N1c1ccc(N2CCOCC2)cc1` stands > 4 mM (inactive); under `CC(=O)O[C@@H]1CC2C(C)(C)[C@H](O)C[C@H](O)[C@]2(C)C2CC[C@@]3(C)C(=CC(=O)O[C@H]3c3ccoc3)[C@@]21C` (stereo partly specified), > 4 mM (inactive).

`NC1=NC(=O)/C(=C\c2ccco2)S1`: the Kd is > 4 mM (inactive). Take `C=C[C@H]1CN2CC[C@H]1C[C@@H]2[C@H](O)c1ccnc2ccccc12`: the Kd is > 4 mM (inactive). The same measure for `C[C@@H]1CC[C@H]2[C@@H](C)C(=O)O[C@@H]3OC4(C)CC[C@@H]1[C@]32OO4`: > 4 mM (inactive); for `NC(=O)Cc1nc2ccccc2[nH]1`: > 4 mM (inactive); for `COc1ccc2c(CC(=O)O)coc2c1`: > 4 mM (inactive). The same measure for `CCNS(=O)(=O)c1ccc(OC)c(C)c1`: > 4 mM (inactive); for `COc1cc(O)ccc1C(C)=O`: > 4 mM (inactive); for `CC(C)=CCC/C(C)=C/CC/C(C)=C/CC/C(C)=C/CC/C(C)=C/CC/C(C)=C/CC/C(C)=C/CC/C(C)=C/CC/C(C)=C/CO`: > 4 mM (inactive). Consider `Cc1ccc(SCC(=O)N2CCOCC2)cc1`, for which the Kd is > 4 mM (inactive).

For the molecule `CC(=O)c1sc2nc(N)nn2c1C`, the Kd was > 4 mM (inactive). For the molecule `Cc1ccc(CN2C3=NC(=O)CN3c3ccccc32)cc1`, the Kd was > 4 mM (inactive). Under `Cc1nccn1CCC(=O)O` stands > 4 mM (inactive).

Consider `Nc1ccc2c(c1)COc1ccccc1O2`, for which the Kd was > 4 mM (inactive). The same measure for `O=C(O)c1cnn2ccccc12`: > 4 mM (inactive); for `COC(=O)N1CCN(c2ccc(C(C)=O)cc2)CC1`: > 4 mM (inactive). `COc1cc(S(=O)(=O)N(C)C)ccc1F`: the Kd was > 4 mM (inactive). The same measure for `O=C(O)c1cccc2c1OCC2`: > 4 mM (inactive); for `Cc1cc(NC(=O)c2c(F)c(F)c(F)c(F)c2F)no1`: > 4 mM (inactive); for `Cc1nn(-c2ccccc2)c(Cl)c1C(N)=O`: > 4 mM (inactive). The same measure for `O=C(c1ccccc1)N1CCNCC1`: > 4 mM (inactive). The same measure for `CC1CN(C2=NCCN2)CC(C)O1` (stereo unspecified): > 4 mM (inactive). Regarding `NCCc1cnc[nH]1`, the Kd was > 4 mM (inactive). Under `CC(=O)Nc1ccc2c(c1)CCC2=O` stands > 4 mM (inactive); under `Cc1nnc(-n2cnc3ccccc32)c2ccccc12`, > 4 mM (inactive).
